“And” between values parts separate entries of the source, which are not always exact repeats. Equal entries are not always repeated.
Tested on: left anterior descending coronary artery (LAD) occlusion, Sprague-Dawley rats
Test: Ventricular arrhythmias (Lown classification, VPB-Score) during final permanent LAD occlusion
Format: in vivo, rat

| Structure (SMILES) | rats with class IIIa arrhythmias (Lown) (5 DAYS RIP, during FPO) [%] | rats with class IVb arrhythmias (Lown) (5 DAYS RIP, during FPO) [%] | rats with class 0 arrhythmias (Lown) (rat, in vivo) [%] | rats with class IIIa arrhythmias (Lown) (rat, in vivo) [%] | rats with class IVb arrhythmias (Lown) (rat, in vivo) |
| --- | --- | --- | --- | --- | --- |
| CC(=O)Oc1ccccc1C(=O)O [ASA, acetyl salicylic acid] | 16.7 | 83.3 | – | – | – |
| O=[N+]([O-])OCC(CO[N+](=O)[O-])O[N+](=O)[O-] [NTG, nitroglycerin] | – | – | 57.1 | 14.3 | 85.7% and 42.9% |

Source: US9675552B2, “Use of stabilized granules containing glyceryl trinitrate for arteriogenesis” (G. Pohl-Boskamp GmbH & Co. KG, priority 2012, dated 2017)
